Values quoted from earlier work in patent US5470884A, “Anti-acne compositions” (Procter & Gamble, priority 1994, dated 1995).

System: skin
Conditions: excessive drying, scaling, swelling, burning, peeling, redness, allergic contact dermatitis, sensitization

SMILES: O=C(OOC(=O)c1ccccc1)c1ccccc1 [benzoyl peroxide]
- skin irritation: very irritating to the skin
